From ChEMBL document CHEMBL1124855, “Synthesis and muscarinic activities of 1,2,4-thiadiazoles” (J Med Chem, 1990)

Assays:
[1] = target: T1, Muscarinic acetylcholine receptor (Rattus norvegicus) (UniProt P08482+P08483+P08485+P08911+P10980)
Description: Ability to displace radioligand [3H]N-methylscopolamine (NMS) at muscarinic acetylcholine receptor from rat cortical homogenate.

[2] = target: T1, Muscarinic acetylcholine receptor (Rattus norvegicus); remark: listed apart in the source
Description: Affinity to displace radioligand [3H]oxotremorine (OXO) at muscarinic acetylcholine receptor from rat cortical homogenate.

[3] = test system: Muscarinic acetylcholine receptor (Rattus norvegicus); test: Ratio of [3H]N-methylscopolamine (NMS) to [3H]oxotremorine (OXO) at Muscarinic acetylcholine receptor from rat cortical homogenate
[4] = target: T1, Muscarinic acetylcholine receptor (Rattus norvegicus); test: Ability to displace radioligand [3H]N-methylscopolamine (NMS) at Muscarinic acetylcholine receptor from rat cortical homogenate

Ratio [3]	SMILES	K app [1] [µM]	K app [2] [µM]	K app [4] [µM]
	CN(C)c1nsc(C2CN3CCC2CC3)n1 (stereo not given)	0.14	0.023	
	CCc1nsc([C@@H]2CN3CCC2C3)n1 (stereo not given in full)	0.29	0.005	
	CN(C)c1nsc([C@H]2CN3CCC2C3)n1 (stereo not given in full)	0.99	0.098	
1200	CN1CCC=C(c2ncno2)C1	8.9	0.0077	
	CC(C)c1nsc(C2CN3CCC2CC3)n1 (stereo not given)	0.033	0.0031	
	c1nsc([C@H]2CN3CCC2C3)n1 (stereo not given in full)	1.4	0.0013	
	OC(c1ccccc1)(c1ccccc1)c1nsc(C2CN3CCC2CC3)n1 (stereo not given)	0.0002	6.8e-05	
	C1CC1c1nsc(C2CN3CCC2CC3)n1 (stereo not given)	0.023	0.0028	
	CN1CCC=C(c2ncns2)C1	11	0.027	
	c1ccc(Cc2nsc([C@H]3CN4CCC3C4)n2)cc1 (stereo not given in full)	0.54	0.061	
	c1ccc(Cc2nsc(C3CN4CCC3CC4)n2)cc1 (stereo not given)	0.082	0.014	
390	Cc1noc(C2=CCCN(C)C2)n1			
	COc1nsc([C@@H]2CN3CCC2C3)n1 (stereo not given in full)	2	0.006	
	Cc1nsc([C@@H]2CN3CCC2C3)n1 (stereo not given in full)	0.62	0.00062	
	C1=C(c2ncns2)CNCC1	11	0.014	
	CN(C)c1nsc([C@@H]2CN3CCC2C3)n1 (stereo not given in full)	0.84	0.062	
	Cc1nsc(C2=CCCNC2)n1	0.95	0.0021	
	C1CC1c1nsc([C@@H]2CN3CCC2C3)n1 (stereo not given in full)	0.21	0.004	

Ratio [3]	SMILES	K app [1] [µM]	K app [2] [µM]	K app [4] [µM]
	CSc1nsc(C2CN3CCC2CC3)n1 (stereo not given)	0.12	0.012	
	CC(C)c1nsc([C@@H]2CN3CCC2C3)n1 (stereo not given in full)	0.29	0.041	
	Cc1nsc([C@H]2CN3CCC2C3)n1 (stereo not given in full)	0.37	0.00045	
	COC(=O)C1=CCCNC1	20	0.017	
	COc1nsc(C2CN3CCC2CC3)n1 (stereo not given)	0.9	0.033	
	Cc1nsc(C2CCNC2)n1 (stereo not given)	18	0.054	
	c1nsc(C2CN3CCC2CC3)n1 (stereo not given)	3.3	0.0077	
	Cc1nsc(C2=CCCN(C)C2)n1	1.4	0.0089	
	c1ccc(Cc2nsc([C@@H]3CN4CCC3C4)n2)cc1 (stereo not given in full)	0.34	0.074	
	CC(C)c1nsc([C@H]2CN3CCC2C3)n1 (stereo not given in full)	0.4	0.055	
	c1nsc([C@@H]2CN3CCC2C3)n1 (stereo not given in full)		0.0056	6.4
	COc1nsc([C@H]2CN3CCC2C3)n1 (stereo not given in full)	1.8	0.017	
	CCc1nsc(C2CN3CCC2CC3)n1 (stereo not given)	0.082	0.009	
	C1CC1c1nsc([C@H]2CN3CCC2C3)n1 (stereo not given in full)	0.16	0.019	
	Cc1nsc(C2CN3CCC2CC3)n1 (stereo not given)	0.36	0.00078	
	CCc1nsc([C@H]2CN3CCC2C3)n1 (stereo not given in full)	0.51	0.033	
	Cc1nsc(C2CCN(C)C2)n1 (stereo not given)	36	0.15	
